The text below walks through data of patent publication US20240400712A1, “A PLATFORM TO OBTAIN MONOCLONAL ANTIBODIES DIRECTED AGAINST PROCESSED TUMOR-SPECIFIC ANTIGENS” (MEDITERRANEA THERANOSTIC SRL, priority 2020, published 2024).

For data set [1], the system named is metastatic triple-negative breast cancer (TNBC). Particulars: cited from earlier work.
For a further data set, the target named is T1, ADAM10 (Mus musculus, UniProt O35598).
T1 construct: endogenous in cells; host or cells: MTE 4-14 cells (transformed thymus cells) transfected with Trop-2
T1 sequence (O35598 215-749): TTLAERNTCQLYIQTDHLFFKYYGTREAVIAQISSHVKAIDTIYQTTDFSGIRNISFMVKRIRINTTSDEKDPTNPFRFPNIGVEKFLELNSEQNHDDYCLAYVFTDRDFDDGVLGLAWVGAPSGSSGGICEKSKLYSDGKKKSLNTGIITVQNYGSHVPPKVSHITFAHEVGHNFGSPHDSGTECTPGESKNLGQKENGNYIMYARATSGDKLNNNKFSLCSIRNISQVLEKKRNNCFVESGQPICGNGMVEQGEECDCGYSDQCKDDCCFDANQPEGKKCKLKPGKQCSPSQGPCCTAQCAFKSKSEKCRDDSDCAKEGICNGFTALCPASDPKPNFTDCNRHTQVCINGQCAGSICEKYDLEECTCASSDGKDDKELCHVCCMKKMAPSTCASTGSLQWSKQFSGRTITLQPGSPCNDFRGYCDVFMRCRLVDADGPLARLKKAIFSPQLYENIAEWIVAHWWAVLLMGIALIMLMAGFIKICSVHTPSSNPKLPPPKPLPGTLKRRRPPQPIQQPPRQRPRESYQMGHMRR
Kind of data set: Western blot of Trop-2 processing after ADAM10 inhibition or silencing in MTE 4-14/Trop-2 transfectants. It counts as cell-based, murine. The following applies: for concentration found effective (up to): inhibition of Trop-2 cleavage in cells. The procedure: ADAM 10 activity was inhibited in the MTE 4-14/Trop-2 transfectants by treatment with chemical inhibitors or mRNA silencing, and the effect on Trop-2 processing and on Trop-2-dependent cell growth was evaluated.
A. WB analysis following treatment with the broad-spectrum metalloprotease inhibitor GM6001 or with the specific ADAM10 inhibitor G1254023X (Ludwig, Hundhausen et al. 2005) or ADAM10 siRNA silencing, as indicated. […] T2-p: processed Trop-2; na: native form; pr processed form.
Western blotting was performed as described (El Sewedy, Fomaro et al. 1998). Tumors from experimental animals were rapidly frozen upon surgical removal and stored at −80° C. Frozen samples were quickly thawed and homogenized with a Dounce homogenizer. Cleared homogenates of tumors and cultured cell lysates were analyzed by SDS-PAGE and transferred to nitrocellulose filters. Filters were hybridized with anti-human Trop-2 (affinity-purified polyclonal rabbit antiserum) or anti-ADAM10 antibodies.
Cells were treated with ADAM10 inhibitors for 24 hours at the minimum concentration found to be effective in inhibiting Trop-2 cleavage, then assayed as indicated. The GM6001 metalloprotease family inhibitor (Calbiochem) was dissolved in DMSO and used at 6.5-13 μM for 24 hours; up to 50 μM GM6001 were found effective. The G1254023X selective ADAM10 inhibitor, dissolved in DMSO, was kindly provided by Dr. A. Ludwig. Cells received two doses (10 μM) every 24 hours for 48 hours; up to 20 μM G1254023X were found effective. Control cells received vehicle alone.
(§1) Complementary strategies were utilized for siRNA design. Briefly, Tuschl' criteria were applied, i.e. position in the mRNA, GC content, base composition and flanking sequences (Elbashir, Harborth et al. 2001). Invitrogen (maidesigner.invitrogen.com/maiexpress/) provides a proprietary algorithm that performs a statistical analysis of the target sequence, based on sequence composition, nucleotide content and thermodynamic properties, and compares candidates with validated siRNA sequences. The Whitehead Institute web site (jura.wi.mit.edu/bioc/siRNAext/) combines Tuschl' criteria with predictions of binding energies for both sense and antisense siRNAs and with BLAST filtering of cross-hybridizing sequences (Semizarov, Frost et al. 2003). […] Annealed oligos were subcloned into the pSUPER vector, kindly provided by Dr. R. Bemard (Brummelkamp, Bemards et al. 2002), under the control of the RNA polymerase Ill H1 gene promoter. siRNA expression constructs were transiently transfected MTE 4-14 transfectants, and cell growth was measured. siRNA-targeted transcript levels were quantified by real-time PCR. […]
For orientation: In western blotting, separated proteins are transferred to a membrane and probed.

The next data set concerns MTE 4-14 cells. Kind of data set: In vitro cell growth of MTE 4-14 transfectants after siRNA-mediated inhibition. In kind it is cell-based, murine. The procedure: C. In vitro growth curves of MTE 4-14 cells transfected with the empty vector, wtTrop-2 or R87A-T88A Trop-2 upon ADAM10 (upper graphs, black,), MMP9 (lower graphs, black,) or control (human CD133, gray), siRNA-mediated inhibition. Bars: SEM. The p value for the only significant difference (ANOVA analysis) is indicated. Stars indicate post-hoc Bonferroni's t test p values (*≤0.05, ***≤0.001).
Cell transfectants were seeded at 1.5-3.0×10^3 cells/well in 96-well plates (five replica wells per data point). Cell numbers were quantified by staining with crystal violet (Orsulic, Li et al. 2002).
Cell numbers were normalized against a standard reference curve of two-fold serially diluted cell samples.
as §1

Sacituzumab govitecan-hziy: in data set [1], the efficacy in patients entry is on record as “effective in patients with metastatic triple-negative breast cancer (TNBC)”. Consider `CNC(=O)[C@H](Cc1c[nH]c2ccccc12)NC(=O)[C@@H](CC(=O)NO)CC(C)C` [GM6001], for which the “concentration found effective (up to)” value on ADAM10 is listed as “up to 50 μM”. Take `CNC(=O)[C@@H](NC(=O)[C@H](CCCc1ccccc1)[C@H](C)N(O)C=O)C(C)(C)C` [G1254023X]: the “minimum concentration found to be effective in inhibiting Trop-2 cleavage” value at ADAM10 (concentration used on cells, GM6001 for 24 hours, G1254023X two doses every 24 hours for 48 hours) stood at 10 µM. Moreover, the “concentration found effective (up to)” value at ADAM10 is “up to 20 μM”.

B1: ADAM10 siRNA: siRNA targeting murine ADAM10 (NM_007399.3, nt 292-309), SEQ ID NO: 57-58, in pSUPER vector (nucleic acid, listed as Mus musculus)
sense: GATCCCCAGACATTATGAAGGATTATTTCAAGAGAATAATCCTTCATAATGTCTTTTTTGGAAA
antisense: AGCTTTTCCAAAAAAGACATTATGAAGGATTATTCTCTTGAAATAATCCTTCATAATGTCTGGG
For B1, the “effect on growth of R87A-T88A or empty vector transfectants” value in the data set on MTE 4-14 cells (MTE 4-14 cells transfected with R87A-T88A Trop-2 or empty vector) is given as “no effect”. In the data set on MTE 4-14 cells (MTE 4-14 cells transfected with wtTrop-2, in vitro proliferation), the “effect on Trop-2 dependent growth in wtTrop-2 transfectants” value is “overrides Trop-2 dependent growth stimulus”. Moreover, the “ADAM10 band in WB after siRNA treatment” value with ADAM10 (MTE 4-14/Trop-2 transfectants) is reported as “disappearance of the corresponding band”.

B2: siRNAs targeting MMP9: control siRNA targeting murine MMP9 (NM_013599, nt 1780-1798), SEQ ID NO: 59-60 (nucleic acid, listed as Mus musculus)
sense: GATCCCCCCGCAGACCAAGAGGGTTTTTCAAGAGAAAACCCTCTTGGTCTGCGGTTTTTGGAAA
antisense: AGCTTTTCCAAAAACCGCAGACCAAGAGGGTTTTCTCTTGAAAAACCCTCTTGGTCTGCGGGGG
B2: the “effect on cell proliferation” value in the data set with MTE 4-14 cells (control siRNA, MTE 4-14 transfectants) is recorded as “no effect on cell proliferation”.
